System: Wnt pathway (L-Wnt cells producing murine Wnt-3a; Leading Light Wnt Reporter Cells)
Assay: Dual-Cell β-Catenin Reporter Assay
Assay type: cell-based, Mouse
Conditions: Mus musculus, luciferase signal reduced to 50% of DMSO control; category symbols
Procedure: Dual-Cell β-Catenin Reporter Assay
Mouse L cells transfected to constitutively produce biologically active murine Wnt-3a, referred to as L-Wnt cells, were purchased from the American Type Culture Collection, ATCC, Manassas, Va. (ATCC). These cells were cultured in DMEM supplemented with 10% FCS (Gibco/Invitrogen, Carlsbad, Calif.), 1% geneticin and 1% sodium pyruvate (Sigma) at 37° C. with 5% CO2. The cells were seeded into 96 well plates and treated with serial dilutions of compound diluted to 0.1% DMSO concentration. After 24 hours, cell supernatants were transferred to a 96 well plate previously seeded with Leading Light® Wnt Reporter Cells, stably transfected with a luciferase gene under control of Wnt pathway response elements. After a further 24 hours, cells are treated with One-glo luciferase assay system (Promega, Madison, Wis.) and the luminescent signal read by envision.

| Molecule | IC50 [nM] |
| --- | --- |
| Cc1cc(-c2c(F)cnc3c2ccn3CC(=O)Nc2ccc(-c3cnccn3)cn2)ccn1 [ID No. 2, 2-[5-fluoro-4-(2-methyl-4-pyridyl)pyrrolo[2,3-b]pyridin-1-yl]-N-(5-pyrazin-2-yl-2-pyridyl)acetamide] | < 1 |
| Cc1cc(-c2ccnc3c2ccn3CC(=O)Nc2ccc(-c3cnccn3)nc2)ccn1 [ID No. 17, 2-[4-(2-methyl-4-pyridyl)pyrrolo[2,3-b]pyridin-1-yl]-N-(6-pyrazin-2-yl-3-pyridyl)acetamide] | < 1 |
| Cc1cc(-c2ncnc3c2cnn3CC(=O)Nc2ccc(-c3cnccn3)cn2)ccn1 [ID No. 22, 2-[4-(2-methyl-4-pyridyl)pyrazolo[3,4-d]pyrimidin-1-yl]-N-(5-pyrazin-2-yl-2-pyridyl)acetamide] | 1 to 5 |
| Cn1nccc1-c1nccc2c1ccn2CC(=O)Nc1ccc(-c2cnccn2)cn1 [compound 4, 2-[4-(2-methylpyrazol-3-yl)pyrrolo[3,2-c]pyridin-1-yl]-N-(5-pyrazin-2-yl-2-pyridyl)acetamide] | 1 to 5 |
| Cc1cc(-c2nc(N)nc3c2ccn3CC(=O)Nc2ccc(-c3cnccn3)cn2)ccn1 [compound 8, 2-[2-amino-4-(2-methyl-4-pyridyl)pyrrolo[2,3-d]pyrimidin-7-yl]-N-(5-pyrazin-2-yl-2-pyridyl)acetamide] | < 1 |
| Cc1cc(-c2nc(Cl)nc3c2ccn3CC(=O)Nc2ccc(-c3cnccn3)cn2)ccn1 [compound 12, 2-[2-chloro-4-(2-methyl-4-pyridyl)pyrrolo[2,3-d]pyrimidin-7-yl]-N-(5-pyrazin-2-yl-2-pyridyl)acetamide] | < 1 |
| Cc1cc(-c2ncnc3c2cc(C)n3CC(=O)Nc2ccc(-c3cnccn3)cn2)ccn1 [compound 13, 2-[6-methyl-4-(2-methyl-4-pyridyl)pyrrolo[2,3-d]pyrimidin-7-yl]-N-(5-pyrazin-2-yl-2-pyridyl)acetamide] | > 5 |

Results, then the molecule that gave them:

| IC50 [nM] | Molecule |
| --- | --- |
| 1 to 5 | Cc1cc(-c2ncnc3c2cnn3CC(=O)Nc2ccc(-c3cnccn3)nc2)ccn1 [compound 14, 2-[4-(2-methyl-4-pyridyl)pyrazolo[3,4-d]pyrimidin-1-yl]-N-(6-pyrazin-2-yl-3-pyridyl)acetamide] |
| > 5 | Cc1cc(-c2ncnc3c2ccn3CC(=O)Nc2ccc(-c3cnccn3)nc2)ccn1 [compound 16, 2-[4-(2-methyl-4-pyridyl)pyrrolo[2,3-d]pyrimidin-7-yl]-N-(6-pyrazin-2-yl-3-pyridyl)acetamide] |
| 1 to 5 | Cn1nccc1-c1ncnc2c1ccn2CC(=O)Nc1ccc(-c2cnccn2)cn1 [compound 18, 2-[4-(2-methylpyrazol-3-yl)pyrrolo[2,3-d]pyrimidin-7-yl]-N-(5-pyrazin-2-yl-2-pyridyl)acetamide] |
| < 1 | O=C(Cn1ccc2c(-c3ccnc(C(F)(F)F)c3)ncnc21)Nc1ccc(-c2cnccn2)cn1 [compound 21, N-(5-pyrazin-2-yl-2-pyridyl)-2-[4-[2-(trifluoromethyl)-4-pyridyl]pyrrolo[2,3-d]pyrimidin-7-yl]acetamide] |
| < 1 | Cc1cc(-c2nccc3c2ccn3CC(=O)Nc2ccc(-c3cnccn3)cn2)ccn1 [compound 23, 2-[4-(2-methyl-4-pyridyl)pyrrolo[3,2-c]pyridin-1-yl]-N-(5-pyrazin-2-yl-2-pyridyl)acetamide] |
| < 1 | Cc1cc(-c2cncc3c2ccn3CC(=O)Nc2ccc(-c3cnccn3)cn2)ccn1 [compound 24, 2-[4-(2-methyl-4-pyridyl)pyrrolo[2,3-c]pyridin-1-yl]-N-(5-pyrazin-2-yl-2-pyridyl)acetamide] |
| < 1 | Cc1cc(-c2ccnc3c2cnn3CC(=O)Nc2ccc(-c3cnccn3)cn2)ccn1 [compound 25, 2-[4-(2-methyl-4-pyridyl)pyrazolo[3,4-b]pyridin-1-yl]-N-(5-pyrazin-2-yl-2-pyridyl)acetamide] |
| < 1 | Cn1nccc1-c1ccnc2c1ccn2CC(=O)Nc1ccc(-c2cnccn2)cn1 [compound 31, 2-[4-(2-methylpyrazol-3-yl)pyrrolo[2,3-b]pyridin-1-yl]-N-(5-pyrazin-2-yl-2-pyridyl)acetamide] |

Same assay, conditions: Mus musculus, luciferase signal reduced to 50% of DMSO control; specific values

| IC50 [nM] | Molecule |
| --- | --- |
| 0.43 | Cc1cc(-c2nccc3c2ccn3CC(=O)Nc2ccc(-c3cnccn3)cn2)ccn1 [compound 23, 2-[4-(2-methyl-4-pyridyl)pyrrolo[3,2-c]pyridin-1-yl]-N-(5-pyrazin-2-yl-2-pyridyl)acetamide] |
| 0.89 | Cn1nccc1-c1ccnc2c1ccn2CC(=O)Nc1ccc(-c2cnccn2)cn1 [compound 31, 2-[4-(2-methylpyrazol-3-yl)pyrrolo[2,3-b]pyridin-1-yl]-N-(5-pyrazin-2-yl-2-pyridyl)acetamide] |

Same assay, conditions: luciferase signal reduced to 50% of DMSO control; category symbols

| Molecule | IC50 [nM] |
| --- | --- |
| 2-[4-(2-methyl-4-pyridyl)imidazo[4,5-c]pyridin-1-yl]-N-(5-pyrazin-2-yl-2-pyridyl)acetamide [compound 20] | 1 to 5 |
| 2-[4-(2-methyl-4-pyridyl)pyrazolo[3,4-b]pyridin-1-yl]-N-(6-pyrazin-2-yl-3-pyridyl)acetamide [compound 15] | 1 to 5 |
| 2-[5-methyl-4-(2-methyl-4-pyridyl)pyrrolo[2,3-b]pyridin-1-yl]-N-(5-pyrazin-2-yl-2-pyridyl)acetamide [ID No. 1] | < 1 |
| 2-[6-methyl-4-(2-methyl-4-pyridyl)pyrrolo[2,3-d]pyrimidin-7-yl]-N-(5-pyrazin-2-yl-2-pyridyl)acetamide [ID No. 13] | < 1 |
| Cn1nccc1-c1ccnc2c1cnn2CC(=O)Nc1ccc(-c2cnccn2)cn1 [compound 6, 2-[4-(2-methylpyrazol-3-yl)pyrazolo[3,4-b]pyridin-1-yl]-N-(5-pyrazin-2-yl-2-pyridyl)acetamide] | > 5 |

Now from value to molecule:

| IC50 [nM] | Molecule |
| --- | --- |
| 1 to 5 | Cc1cc(-c2ccnc3c2ccn3CC(=O)Nc2ccc(-c3cnccn3)nc2)ccn1 [compound 17, 2-[4-(2-methyl-4-pyridyl)pyrrolo[2,3-b]pyridin-1-yl]-N-(6-pyrazin-2-yl-3-pyridyl)acetamide] |
| > 5 | Cc1cc(-c2ncnc3c2ncn3CC(=O)Nc2ccc(-c3cnccn3)cn2)ccn1 [compound 19, 2-[6-(2-methyl-4-pyridyl)purin-9-yl]-N-(5-pyrazin-2-yl-2-pyridyl)acetamide] |
| < 1 | Cc1cc(-c2ncnc3c2cnn3CC(=O)Nc2ccc(-c3cnccn3)cn2)ccn1 [compound 22, 2-[4-(2-methyl-4-pyridyl)pyrazolo[3,4-d]pyrimidin-1-yl]-N-(5-pyrazin-2-yl-2-pyridyl)acetamide] |
| > 5 | CN1CCN(c2ccnc3c2ccn3CC(=O)Nc2ccc(-c3cnccn3)cn2)CC1 [compound 28, 2-[4-(4-methylpiperazin-1-yl)pyrrolo[2,3-b]pyridin-1-yl]-N-(5-pyrazin-2-yl-2-pyridyl)acetamide] |
| > 5 | CC1CN(c2ccnc3c2ccn3CC(=O)Nc2ccc(-c3cnccn3)cn2)CC(C)N1 (stereo not shown) [compound 29, 2-[4-(3,5-dimethylpiperazin-1-yl)pyrrolo[2,3-b]pyridin-1-yl]-N-(5-pyrazin-2-yl-2-pyridyl)acetamide] |

Same assay, conditions: luciferase signal reduced to 50% of DMSO control; specific values

| IC50 [nM] | Molecule |
| --- | --- |
| 0.32 | 2-[5-methyl-4-(2-methyl-4-pyridyl)pyrrolo[2,3-b]pyridin-1-yl]-N-(5-pyrazin-2-yl-2-pyridyl)acetamide [ID No. 1] |

Source: patent US10202375B2, “N-pyridinyl acetamide derivatives as Wnt signalling pathway inhibitors” (Redx Pharma PLC, priority 2014, dated 2019)
